{"source": "patent US7001770B1", "about": "“Calpain inhibitors and their applications” (priority 1998, dated 2006)", "key": {"[1]": {"system": "p53 protein levels in Hep3B cells (p53 null)", "experiment": "Western blot of p53 protein levels", "type": "cell-based", "conditions": "rAd-p53 in the presence of 10 μM calpain inhibitor 1 versus rAd53 alone; 17 hours", "experimental": "To determine if increases in exogeneous p53 levels occurred in response to CI-1, the p53 null cell line Hep3B was infected with 1×10^9 particle/ml and assayed for p53 protein levels by western blots 17 hours post-infection. No p53 protein was detected in untreated Hep3B. p53 protein was detected in cells infected with rAd53 alone, and increased greater then 10 fold when infected with rAd-p53 in the presence of 10 μM calpain inhibitor 1. […] The enhancement of p53 stability by CI-1 may not, therefore, be the sole mechanism by which enhanced cell death has been achieved. […] Thus, a new mechanism of action is involved other than p53 stability in the increased induction of apoptosis by the combination of CI-1 and p53.\nAt 17 hours post treatment, cells were lysed in protein lysis buffer (50 mM tris, 250 mM NaCl, 50 mM NaF, 5 mM EDTA and 0.1% NP-40 with 1 mM PMSF). Cell lysates were subjected to electrophoresis. 10 μg of protein was added per lane on a 12% polyacrylamide gel and transfered onto nitrocellulose membranes. The membranes were subjected to western blot analysis using antibodies specific for p53 or p21 (Calbiochem, p53 antibody Ab-6, and p21 antibody Ab-7). […] Blots were developed using enhanced chemiluminescence detection system (Amersham) and quantitated using NIH imaging analysis."}, "CTL response": {"system": "CTL response", "experiment": "In vivo CTL response to recombinant adenoviral vector (51Cr release)", "set-up": "species or system C57BL/6 mice", "conditions": "for CTL response to the adenoviral vector: 60 mg/Kg or 120 mg/Kg calpain inhibitor 1, 9×10^9 particles/animal iv, spleens day 10", "experimental": "FIG. 11 is a graphical results of the cytotoxicity assay of CTL against ACN53 transduced EL-4 targets in C57/B16 mice injected with 60 mg/Kg (A) or 120 mg/Kg (♦) calpain inhibitor 1 in combination with ACN53 as more fully described in Example 7 herein. Percent lysis is plotted on the vertical axis and time on the horizontal axis. The ACN53 alone is represented by the circles (●) and the naive control level is represented by the squares (▪).\nThe applicants hypothesized that the combined effect on MHC Class 1 presentation and apoptosis of non-transduced will reduce the immune response to the viral vectors. This was confirmed in a in vivo mouse model in substantial accordance with the teaching of example […] herein. The results are shown in the FIG. 8 of the attached drawings.\nC57BU6 mice (2 mice per dose) were injected intravenously with 9×10^9 particles/animal (iv/200 μl) of a recombinant adenoviral vector encoding the βgal reporter gene under control of the CMV promoter. Naive mice were employed as controls. The spleens were harvested at day 10 for immunological analysis. Livers were harvested for analysis of β-gal transgene expression. Cells were be dispersed to a single cell suspension and washed 3 times. The cells were be resuspended complete RPMI-10 (RPMI+10% FCS, 2ME (5 μM), glutamine, Na pyruvate, Pen/Strep). Responder CTL cells were seeded in 24-well plates at 8×10^6 cells per well in 1.5 ml RPMI-5%. The responder CTL cells were restimulated by adding syngeneic (C57BL/6) spleen cells that were transduced for 6 hours with 2×10^10 BGCG particles/ml and then mitomycin treated to inhibit proliferation and/or activation of stimulator cell populations. The responder CTL were co-cultured with the stimulator cells at 37° C. in a humidified incubator for seven days. […] The Effector CTL cells were harvested, washed 2 times and counted to enumerate the CTL effector cells. […] The Effector CTL cells were co-cultivated with the target cells for 6 hours and the specific ^51Cr release were determined by counting harvested supernates (100 μl) in the γ counter."}}, "note": "Square brackets hold non-standard residues; d marks the D form. Peptide text beside a SMILES is read from it. Nle = CCCC[C@H](N)C(=O)O"}
{"smiles": "CCCC[C@@H](C=O)NC(=O)[C@H](CC(C)C)NC(=O)[C@H](CC(C)C)NC(C)=O", "note": "[CI-1, N-acetyl-leu-leu-norleucinal] (Ac-Leu-Leu-[Nle]-aldehyde)", "values": [{"measurement": "increase in p53 protein", "setting": "[1]", "value": "> 10", "unit": "fold"}, {"measurement": "CTL response to the adenoviral vector", "setting": "CTL response", "value": "significant inhibition"}, {"measurement": "CTL response to the adenoviral vector", "setting": "CTL response; listed as calpain inhibitor 1", "value": "substantially reduced"}, {"measurement": "relative number of CTL lytic-units (effector to target ratio giving 25% killing)", "setting": "CTL response; treatment with calpain inhibitor CI-1, BGCG injected mice", "value": "greater than a five-fold decrease"}]}
